Source: patent publication US9399030B2, “Topically applied circulation enhancing agent and skin and hair cosmetic and bath agent containing the same” (AJINOMOTO CO., INC., priority 2005, dated 2016)

How the values were obtained:
conchae of hairless mice = assay: Vasodilating effect on the conchae of hairless mice, visual evaluation of red spots (Examples 2 and 4); assay type: in vivo, hairless mouse (HR-1, female); conditions: for Vasodilating effect, 1 wt %: 1 wt % in liquid paraffin; for Vasodilating effect, 1 wt % / Vasodilating effect, 5 wt %: symbols not defined in the patent; for Vasodilating effect, 5 wt %: 5 wt % in liquid paraffin; for Remarks: vasodilating effect: in liquid paraffin; for Activity compared with capsiate: statement in the description
From the text: The vasodilating effects of capsinoids (a mixed product prepared by the method stated in Reference Example (5) was employed; see below) and capsaicin was compared using the conchae of hairless mice.
Test Method: A sample was applied on the right ear and a control was applied on the left ear of a hairless mouse (HR-1, female), and the development of red spots was visually evaluated.
Sample: (1) Capsinoids (1 weight percent and 5 weight percent dissolved in liquid paraffin)
(2) Capsaicin (1 weight percent and 5 weight percent dispersed in liquid paraffin)
(§1) In the same manner as in Example 2, the vasodilating effects of various capsinoid compounds were compared using the conchae of hairless mice. The samples were dissolved in liquid paraffin.

[1] = Dissolution of the sample in liquid paraffin (Example 4); assay type: physicochemical
Procedure: as §1

Row | Structure (SMILES) | Vasodilating effect, 5 wt % (conchae of hairless mice) | Remarks: vasodilating effect (conchae of hairless mice) | Activity compared with capsiate (conchae of hairless mice) | also measured
1 | COc1cc(COC(=O)CCCCCCC(C)C)ccc1O [Dihydrocapsiate, 4-hydroxy-3-methoxybenzyl 8-methylnonanoate] | ◯ | – | – | Vasodilating effect, 1 wt % (conchae of hairless mice): Δ; Remarks: weak red spots still caused after (conchae of hairless mice; 5 weight percent application): caused even after 90 minutes
2 | CCCCCCCCCCCCCCCCCC(=O)OCc1ccc(O)c(OC)c1 [Vanillyl octadecanoate] | – | No vasodilating effect | – | –
3 | CCCCCCCC(=O)OCc1ccc(O)c(OC)c1 [Vanillyl octanoate, 4-hycroxy-3-methoxybenzyl octanoate] | ◯ | – | about the same degree of activity as capsiate | Remarks: disappearance of the vasodilating effect (conchae of hairless mice; concentration not given): Vasodilating effect disappeared in about one hour
4 | CCCCCCCC/C=C\CCCCCCCC(=O)OCc1ccc(O)c(OC)c1 [Vanillyl oleate] | – | No vasodilating effect | – | –
5 | COc1cc(CNC(=O)CCCC/C=C/C(C)C)ccc1O [Capsaicin, capsaicin, reference compound] | ◯ | – | – | Remarks: red spots still caused after (conchae of hairless mice; 1 weight percent application): even after two hours; Persistence of red spots (conchae of hairless mice; 1 weight percent dispersed in liquid paraffin): retained their original form even after two hours; Development of red spots (visual evaluation) (conchae of hairless mice; 1 weight percent in liquid paraffin, applied on ear): red spots were observed; Vasodilating effect, 1 wt % (conchae of hairless mice): ◯; Development of red spots (visual evaluation) (conchae of hairless mice; 5 weight percent in liquid paraffin, 30 minutes after application): clear red spots were observed
6 | COc1cc(COC(=O)CCCCCC(C)C)ccc1O [Nordihydrocapsiate, nordihydrocapsiate] | ◯ | – | – | Vasodilating effect, 1 wt % (conchae of hairless mice): Δ; Remarks: weak red spots still caused after (conchae of hairless mice; 5 weight percent application): caused even after 90 minutes
7 | CC/C=C\C/C=C\C/C=C\CCCCCCCC(=O)OCc1ccc(O)c(OC)c1 [Vanillyl linolenate] | – | No vasodilating effect | – | –
8 | CCCCCCCCCCC(=O)OCc1ccc(O)c(OC)c1 [Vanillyl undecanoate, vanillyl undecanoate] | ◯ | – | about the same degree of activity as capsiate | Remarks: disappearance of the vasodilating effect (conchae of hairless mice; concentration not given): the effect disappeared more quickly than for C10.
9 | COc1cc(CO)ccc1O [Vanillyl alcohol, reference compound] | – | No vasodilating effect | – | –
10 | COc1cc(COC(=O)CCCC/C=C/C(C)C)ccc1O [Capsiate, 4-hydoxy-3-methoxybenzyl (E)-8-methyl-6-nonenoate] | ◯ | – | – | Vasodilating effect, 1 wt % (conchae of hairless mice): Δ; Remarks: weak red spots still caused after (conchae of hairless mice; 5 weight percent application): caused even after 90 minutes
11 | CCC(C)CCCCCCC(=O)OCc1ccc(O)c(OC)c1 (centres unmarked) [Vanillyl 8-methyldecanoate, vanillyl 8-methyldecanoate] | ◯ | – | about the same degree of activity as capsiate | Remarks: disappearance of the vasodilating effect (conchae of hairless mice; 5 weight percent application): disappeared in about two hour
12 | COc1cc(COC(=O)CCCCCCCC(C)C)ccc1O [Vanillyl 9-methyldecanoate, vanillyl 9-methyldecanoate] | ◯ | – | about the same degree of activity as capsiate | Remarks: disappearance of the vasodilating effect (conchae of hairless mice; 5 weight percent application): disappeared in about two hour
13 | CCCCCCCCCCCCCCC(=O)OCc1ccc(O)c(OC)c1 [Vanillyl pentadecanoate] | – | – | – | Remarks: dissolution in liquid paraffin [1]: Not dissolved
14 | CCCCCCCCC(=O)OCc1ccc(O)c(OC)c1 [vanillyl nonanoate, 4-hydroxy-3-methyloxybenzyl nonanoate] | – | – | about the same degree of activity as capsiate | –
15 | CCCCCCCCCCCCC(=O)OCc1ccc(O)c(OC)c1 [Vanillyl tridecanoate] | – | No vasodilating effect | – | –
16 | CCC(C)CCCCC(=O)OCc1ccc(O)c(OC)c1 (centres unmarked) [Vanillyl 6-methyloctanoate, vanillyl 6-methyloctanoate] | ◯ | – | about the same degree of activity as capsiate | Remarks: disappearance of the vasodilating effect (conchae of hairless mice; 5 weight percent application): disappeared in about two hour
17 | CCCCCCCCCC(=O)OCc1ccc(O)c(OC)c1 [Vanillyl decanoate, 4-hydroxy-3-methoxybenzyl decanoate (caprate)] | ◯ | – | about the same degree of activity as capsiate | Remarks: disappearance of the vasodilating effect (conchae of hairless mice; concentration not given): Vasodilating effect disappeared in about one hour
18 | CCC(C)CCCCCC(=O)OCc1ccc(O)c(OC)c1 (centres unmarked) [Vanillyl 7-methylnonanoate, vanillyl 7-methylnonanoate] | ◯ | – | about the same degree of activity as capsiate | Remarks: disappearance of the vasodilating effect (conchae of hairless mice; 5 weight percent application): disappeared in about two hour
19 | CCCCCCCCCCCC(=O)OCc1ccc(O)c(OC)c1 [Vanillyl dodecanoate] | – | No vasodilating effect | – | –
